Experimental data: patent publication US20250059159A1, “PLPRO INHIBITORS” (SHANGHAI SYNERGY PHARMACEUTICAL SCIENCES CO., LTD., priority 2021, published 2025)

Columns and labels:
SARS-CoV-2 PLpro = SARS-CoV-2 PLpro (Severe acute respiratory syndrome coronavirus 2 (2019-nCoV) (SARS-CoV-2), UniProt P0DTD1); test: PLpro enzymatic inhibition assay (IC50 value determination); type: biochemical; details: 60 min preincubation for covalent inhibitors, 10 min for non-covalent, read-out: Inhibition of SARS-CoV-2 PLpro IC50 range
SARS-CoV2 (Omicron) = test: SARS-CoV2 antiviral cellular activity assay in A549:hACE2 cells; type: cell-based; details: Severe acute respiratory syndrome coronavirus 2, 48 h; read-out: Antiviral cellular EC50 range (Omicron)

Row | Compound | IC50 (SARS-CoV-2 PLpro) | EC50 (SARS-CoV2 (Omicron))
1 | COC(=O)/C=C/CNC(=O)CNC(=O)CN(C1CCN([C@H](C)c2cccc3ccccc23)CC1)S(C)(=O)=O [Compound 20, methyl (R,E)-4-(2-(2-(N-(1-(1-(naphthalen-1-yl)ethyl)piperidin-4-yl)methylsulfonamido)acetamido)acetamido)but-2-enoate] | < 100 nM | < 100 nM
2 | C#CCNC(=O)CNC(=O)CN(C1CCN([C@H](C)c2cccc3ccccc23)CC1)S(C)(=O)=O [Compound 21, (R)-2-(N-(1-(1-(naphthalen-1-yl)ethyl)piperidin-4-yl)methylsulfonamido)-N-(2-oxo-2-(prop-2-yn-1-ylamino)ethyl)acetamide] | < 100 nM | < 100 nM
3 | C#CCNC(=O)CNC(=O)CN(C1CCN([C@H](C)c2cccc3ccccc23)CC1)S(=O)(=O)C1CC1 [Compound 60, (R)-2-(N-(1-(1-(naphthalen-1-yl)ethyl)piperidin-4-yl)cyclopropanesulfonamido)-N-(2-oxo-2-(prop-2-yn-1-ylamino)ethyl)acetamide] | < 100 nM | < 100 nM
4 | C#CCNC(=O)CNC(=O)CN(C1CCN([C@H](C)c2cccc3ccccc23)CC1)S(=O)(=O)c1ccccc1 [Compound 63, (R)-2-(N-(1-(1-(naphthalen-1-yl)ethyl)piperidin-4-yl)phenylsulfonamido)-N-(2-oxo-2-(prop-2-yn-1-ylamino)ethyl)acetamide] | < 100 nM | < 100 nM
5 | C#CCNC(=O)CNC(=O)CN(C1CCN([C@H](C)c2cccc3ccccc23)CC1)S(=O)(=O)N1CCCC1 [Compound 65, (R)-2-(N-(1-(1-(naphthalen-1-yl)ethyl)piperidin-4-yl)pyrrolidine-1-sulfonamido)-N-(2-oxo-2-(prop-2-yn-1-ylamino)ethyl)acetamide] | < 100 nM | < 100 nM
6 | C#CCNC(=O)CNC(=O)CN(CCC(C)=O)C1CCN([C@H](C)c2cccc3ccccc23)CC1 [Compound 79, (R)-2-((1-(1-(naphthalen-1-yl)ethyl)piperidin-4-yl)(3-oxobutyl)amino)-N-(2-oxo-2-(prop-2-yn-1-ylamino)ethyl)acetamide] | < 100 nM | 100 to 1000 nM
7 | C#CCNC(=O)CNC(=O)CN(C1CCN([C@H](C)c2cccc3ccccc23)CC1)S(=O)(=O)C(F)(F)F [Compound 80, (R)—N-(2-oxo-2-(prop-2-yn-1-ylamino)ethyl)-2-((1,1,1-trifluoro-N-(1-(1-(naphthalen-1-yl)ethyl)piperidin-4-yl)methyl)sulfonamido)acetamide] | < 100 nM | 100 to 1000 nM
8 | C#CCNC(=O)CNC(=O)CN(C1CCN(C(C)c2ccc(F)c3ccccc23)CC1)S(C)(=O)=O (stereo not shown) [Compound 107] | < 100 nM | 100 to 1000 nM
9 | C#CCNC(=O)CNC(=O)CN(C1CCN([C@H](C)c2cccc3ccccc23)CC1)S(=O)(=O)N1CCC(C(N)=O)C1 (stereo partly drawn) [Compound 137, 1-(N-(1-((R)-1-(naphthalen-1-yl)ethyl)piperidin-4-yl)-N-(2-oxo-2-((2-oxo-2-(prop-2-yn-1-ylamino)ethyl)amino)ethyl)sulfamoyl)pyrrolidine-3-carboxamide] | < 100 nM | 
10 | C#CCNC(=O)CNC(=O)CN(C1CCN(C(C)c2ccc(OC)cc2Cl)CC1)S(C)(=O)=O (stereo not shown) [Compound 139, 2-(N-(1-(1-(2-chloro-4-methoxyphenyl)ethyl)piperidin-4-yl)methylsulfonamido)-N-(2-oxo-2-(prop-2-yn-1-ylamino)ethyl)acetamide] | 100 to 1000 nM | 
11 | C#CCNC(=O)CNC(=O)CN(C1CCN(C(C)c2cc(Cl)ccc2Cl)CC1)S(C)(=O)=O (stereo not shown) [Compound 140, 2-(N-(1-(1-(2,5-dichlorophenyl)ethyl)piperidin-4-yl)methylsulfonamido)-N-(2-oxo-2-(prop-2-yn-1-ylamino)ethyl)acetamide] | 100 to 1000 nM | 
12 | C#CCNC(=O)CNC(=O)CN(C1CCN(C(C)c2cccc(-c3cccs3)c2)CC1)S(C)(=O)=O (stereo not shown) [Compound 141, N-(2-oxo-2-(prop-2-yn-1-ylamino)ethyl)-2-(N-(1-(1-(3-(thiophen-2-yl)phenyl)ethyl)piperidin-4-yl)methylsulfonamido)acetamide] | 100 to 1000 nM | 
13 | C#CCNC(=O)CNC(=O)CN(C1CCN(C(C)c2cccc(C)c2Cl)CC1)S(C)(=O)=O (stereo not shown) [Compound 142, 2-(N-(1-(1-(2-chloro-3-methylphenyl)ethyl)piperidin-4-yl)methylsulfonamido)-N-(2-oxo-2-(prop-2-yn-1-ylamino)ethyl)acetamide] | 100 to 1000 nM | 
14 | C#CCNC(=O)CNC(=O)CN(C1CCN(C(CO)c2cccc3ccccc23)CC1)S(C)(=O)=O (stereo not shown) [Compound 143, 2-(N-(1-(2-hydroxy-1-(naphthalen-1-yl)ethyl)piperidin-4-yl)methylsulfonamido)-N-(2-oxo-2-(prop-2-yn-1-ylamino)ethyl)acetamide] | 1000 to 10000 nM | 
15 | C#CCNC(=O)CNC(=O)CN(C1CCN(C(CF)c2cccc3ccccc23)CC1)S(C)(=O)=O (stereo not shown) [Compound 144, 2-(N-(1-(2-fluoro-1-(naphthalen-1-yl)ethyl)piperidin-4-yl)methylsulfonamido)-N-(2-oxo-2-(prop-2-yn-1-ylamino)ethyl)acetamide] | 1000 to 10000 nM | 
16 | C#CCNC(=O)CNC(=O)CN(C1CCN([C@H](C)c2cccc3ccccc23)CC1)S(N)(=O)=O [Compound 145, (R)-2-((1-(1-(naphthalen-1-yl)ethyl)piperidin-4-yl)(sulfamoyl)amino)-N-(2-oxo-2-(prop-2-yn-1-ylamino)ethyl)acetamide 2,2,2-trifluoroacetate] | < 100 nM | 
17 | C#CC(=O)NNC(=O)CN(C1CCN([C@H](C)c2cccc3ccccc23)CC1)S(C)(=O)=O [Compound 147, (R)—N-(1-(1-(naphthalen-1-yl)ethyl)piperidin-4-yl)-N-(2-oxo-2-(2-propioloylhydrazineyl)ethyl)methanesulfonamide] | < 100 nM | 
18 | C#CCNC(=O)CNC(=O)CN(C1CCN(C(c2cccc3ccccc23)C(F)F)CC1)S(C)(=O)=O (stereo not shown) [Compound 148, 2-(N-(1-(2,2-difluoro-1-(naphthalen-1-yl)ethyl)piperidin-4-yl)methylsulfonamido)-N-(2-oxo-2-(prop-2-yn-1-ylamino)ethyl)acetamide] | 1000 to 10000 nM | 
19 | [2H]C([2H])([2H])C(c1cccc2ccccc12)N1CCC(N(CC(=O)NCC(=O)NCC#C)S(C)(=O)=O)CC1 (stereo not shown) [Compound 151, 2-(N-(1-(1-(naphthalen-1-yl)ethyl-2,2,2-d3)piperidin-4-yl)methylsulfonamido)-N-(2-oxo-2-(prop-2-yn-1-ylamino)ethyl)acetamide] | < 100 nM | 
20 | C#CCNC(=O)CNC(=O)[C@@H](C)N(C1CCN([C@H](C)c2cccc3ccccc23)CC1)S(C)(=O)=O [Compound 152, (R)-2-(N-(1-((R)-1-(naphthalen-1-yl)ethyl)piperidin-4-yl)methylsulfonamido)-N-(2-oxo-2-(prop-2-yn-1-ylamino)ethyl)propanamide] | < 100 nM | 
21 | [2H]C([2H])(C#C)NC(=O)CNC(=O)CN(C1CCN(C(C)c2cccc3ccccc23)CC1)S(C)(=O)=O (stereo not drawn) [Compound 153, 2-(N-(1-(1-(naphthalen-1-yl)ethyl)piperidin-4-yl)methylsulfonamido)-N-(2-oxo-2-((prop-2-yn-1-yl-1,l-d2)amino)ethyl)acetamide] | < 100 nM | 
22 | COC(CNC(=O)CNC(=O)CN(C1CCN(C(C)c2cccc3ccccc23)CC1)S(C)(=O)=O)OC (stereo not shown) [Compound 154, N-(2,2-dimethoxyethyl)-2-(2-(N-(1-(1-(naphthalen-1-yl)ethyl)piperidin-4-yl)methylsulfonamido)acetamido)acetamide] | 1000 to 10000 nM | 
23 | C#CC(C)(C)CNC(=O)CNC(=O)CN(C1CCN(C(C)c2cccc3ccccc23)CC1)S(C)(=O)=O (stereo not shown) [Compound 156, N-(2,2-dimethylbut-3-yn-1-yl)-2-(2-(N-(1-(1-(naphthalen-1-yl)ethyl)piperidin-4-yl)methylsulfonamido)acetamido)acetamide] | 1000 to 10000 nM | 
24 | C#CCCNC(=O)CNC(=O)CN(C1CCN(C(C)c2cccc3ccccc23)CC1)S(C)(=O)=O (stereo not shown) [Compound 157, N-(but-3-yn-1-yl)-2-(2-(N-(1-(1-(naphthalen-1-yl)ethyl)piperidin-4-yl)methylsulfonamido)acetamido)acetamide] | 100 to 1000 nM | 
25 | CC(c1cccc2ccccc12)N1CCC(N(CC(=O)NCC(=O)NC/C=C/C(N)=O)S(C)(=O)=O)CC1 (stereo not shown) [Compound 159, (E)-4-(2-(2-(N-(1-(1-(naphthalen-1-yl)ethyl)piperidin-4-yl)methylsulfonamido)acetamido)acetamido)but-2-enamide] | 100 to 1000 nM | 
26 | COC(=O)/C(C#N)=C/CNC(=O)CNC(=O)CN(C1CCN(C(C)c2cccc3ccccc23)CC1)S(C)(=O)=O (stereo not shown) [Compound 162, methyl (E)-2-cyano-4-(2-(2-(N-(1-(1-(naphthalen-1-yl)ethyl)piperidin-4-yl)methylsulfonamido)acetamido)acetamido)but-2-enoate] | 100 to 1000 nM | 
27 | C#CCNC(=S)CNC(=O)CN(C1CCN(C(C)c2cccc3ccccc23)CC1)S(C)(=O)=O (stereo not shown) [Compound 164, 2-(N-(1-(1-(naphthalen-1-yl)ethyl)piperidin-4-yl)methylsulfonamido)-N-(2-(prop-2-yn-1-ylamino)-2-thioxoethyl)acetamide] | < 100 nM | 
28 | C=CC(=O)NNC(=O)CN(C1CCN(C(C)c2cccc3ccccc23)CC1)S(C)(=O)=O (stereo not shown) [Compound 168, N-(2-(2-acryloylhydrazineyl)-2-oxoethyl)-N-(1-(1-(naphthalen-1-yl)ethyl)piperidin-4-yl)methanesulfonamide] | 1000 to 10000 nM | 
29 | C#Cc1nnc(NC(=O)CN(C2CCN(C(C)c3cccc4ccccc34)CC2)S(C)(=O)=O)o1 (stereo not shown) [Compound 170, N-(5-ethynyl-1,3,4-oxadiazol-2-yl)-2-(N-(1-(1-(naphthalen-1-yl)ethyl)piperidin-4-yl)methylsulfonamido)acetamide] | 1000 to 10000 nM | 
